Assay results published in ChEMBL document CHEMBL5465560, “Selectivity Literature for EUbOPEN Chemogenomic Library” (2024).

Assays:
[1] = biological target: Transient receptor potential cation channel subfamily M member 6 (Homo sapiens) (UniProt Q9BX84); assay: Selectivity interaction (KinomeScan (DiscoverX)) EUB0000229b TRPM6; details: at 10 µM
[2] = biological target: Mitogen-activated protein kinase 9 (Homo sapiens, UniProt P45984); assay: Selectivity interaction (KinomeScan (DiscoverX)) EUB0000045b MAPK9
Sequence of Mitogen-activated protein kinase 9 (P45984 whole entry, looked up): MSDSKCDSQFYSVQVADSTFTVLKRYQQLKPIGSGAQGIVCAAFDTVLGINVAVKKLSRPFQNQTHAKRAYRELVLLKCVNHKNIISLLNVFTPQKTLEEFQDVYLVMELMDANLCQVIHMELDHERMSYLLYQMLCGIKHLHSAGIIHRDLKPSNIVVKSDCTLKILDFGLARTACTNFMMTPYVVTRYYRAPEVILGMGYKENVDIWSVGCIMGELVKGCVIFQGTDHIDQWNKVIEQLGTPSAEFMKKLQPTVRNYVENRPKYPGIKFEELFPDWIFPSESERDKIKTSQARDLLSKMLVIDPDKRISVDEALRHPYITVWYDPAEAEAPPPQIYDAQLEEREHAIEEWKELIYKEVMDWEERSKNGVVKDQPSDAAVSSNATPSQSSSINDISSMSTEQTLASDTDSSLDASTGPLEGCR

[3] = biological target: Cyclin-dependent kinase 5 (Homo sapiens, UniProt Q00535); assay: Selectivity interaction (KinomeScan (DiscoverX)) EUB0000045b CDK5
Sequence of Cyclin-dependent kinase 5 (Q00535 whole entry, looked up): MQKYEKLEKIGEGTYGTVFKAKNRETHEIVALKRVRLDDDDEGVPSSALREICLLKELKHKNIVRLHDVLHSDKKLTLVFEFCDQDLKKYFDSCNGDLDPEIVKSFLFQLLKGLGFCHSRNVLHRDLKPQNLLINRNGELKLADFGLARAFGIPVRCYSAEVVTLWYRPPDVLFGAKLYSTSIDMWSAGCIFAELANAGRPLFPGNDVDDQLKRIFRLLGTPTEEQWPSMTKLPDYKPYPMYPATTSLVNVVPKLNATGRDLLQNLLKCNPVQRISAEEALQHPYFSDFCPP

[4] = biological target: T1, Serine/threonine-protein kinase TAO3 (Homo sapiens) (UniProt Q9H2K8); assay: Selectivity interaction (KinomeScan (DiscoverX)) EUB0000695a TAOK3; details: at 100 nM
T1 sequence (whole entry): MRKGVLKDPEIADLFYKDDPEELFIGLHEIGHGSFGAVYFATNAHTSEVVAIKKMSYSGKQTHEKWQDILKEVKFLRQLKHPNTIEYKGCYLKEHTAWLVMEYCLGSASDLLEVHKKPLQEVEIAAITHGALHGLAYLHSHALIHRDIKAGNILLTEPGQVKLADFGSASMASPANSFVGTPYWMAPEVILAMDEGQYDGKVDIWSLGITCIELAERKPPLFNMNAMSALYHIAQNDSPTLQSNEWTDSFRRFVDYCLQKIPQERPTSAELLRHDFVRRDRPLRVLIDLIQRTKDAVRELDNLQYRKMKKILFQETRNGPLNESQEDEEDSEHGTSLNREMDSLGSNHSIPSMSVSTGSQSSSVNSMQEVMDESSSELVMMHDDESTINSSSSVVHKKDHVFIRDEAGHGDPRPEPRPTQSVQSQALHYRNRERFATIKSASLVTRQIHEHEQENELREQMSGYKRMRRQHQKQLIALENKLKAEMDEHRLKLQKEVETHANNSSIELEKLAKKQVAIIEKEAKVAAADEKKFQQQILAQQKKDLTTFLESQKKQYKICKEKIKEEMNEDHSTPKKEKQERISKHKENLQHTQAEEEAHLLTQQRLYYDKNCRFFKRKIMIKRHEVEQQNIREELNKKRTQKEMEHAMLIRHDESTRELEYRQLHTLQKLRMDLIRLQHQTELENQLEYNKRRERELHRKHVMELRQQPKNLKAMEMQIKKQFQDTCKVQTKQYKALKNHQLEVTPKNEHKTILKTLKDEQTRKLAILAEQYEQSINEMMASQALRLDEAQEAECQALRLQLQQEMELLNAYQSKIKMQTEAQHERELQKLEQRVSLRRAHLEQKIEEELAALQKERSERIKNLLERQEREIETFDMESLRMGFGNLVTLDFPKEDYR

[5] = biological target: Protein kinase C delta type (Homo sapiens) (UniProt Q05655); assay: Selectivity interaction (KinomeScan (DiscoverX)) EUB0000666a PRKCD; details: at 10 µM
[6] = biological target: Vascular endothelial growth factor receptor 1 (Homo sapiens) (UniProt P17948); assay: Selectivity interaction (KinomeScan (DiscoverX)) EUB0001049a FLT1; details: at 1 µM
[7] = biological target: Cyclin-dependent kinase 2 (Homo sapiens, UniProt P24941); assay: Selectivity interaction (KinomeScan (DiscoverX)) EUB0001049a CDK2; details: at 1 µM
[8] = biological target: Ribosomal protein S6 kinase alpha-5 (Homo sapiens) (UniProt O75582); assay: Selectivity interaction (Millipore kinase profiler) EUB0000124b RPS6KA5; details: at 10 µM
[9] = biological target: Protein-tyrosine kinase 6 (Homo sapiens, UniProt Q13882); assay: Selectivity interaction (ProQinase) EUB0000171b PTK6
Sequence of Protein-tyrosine kinase 6 (Q13882 whole entry, looked up): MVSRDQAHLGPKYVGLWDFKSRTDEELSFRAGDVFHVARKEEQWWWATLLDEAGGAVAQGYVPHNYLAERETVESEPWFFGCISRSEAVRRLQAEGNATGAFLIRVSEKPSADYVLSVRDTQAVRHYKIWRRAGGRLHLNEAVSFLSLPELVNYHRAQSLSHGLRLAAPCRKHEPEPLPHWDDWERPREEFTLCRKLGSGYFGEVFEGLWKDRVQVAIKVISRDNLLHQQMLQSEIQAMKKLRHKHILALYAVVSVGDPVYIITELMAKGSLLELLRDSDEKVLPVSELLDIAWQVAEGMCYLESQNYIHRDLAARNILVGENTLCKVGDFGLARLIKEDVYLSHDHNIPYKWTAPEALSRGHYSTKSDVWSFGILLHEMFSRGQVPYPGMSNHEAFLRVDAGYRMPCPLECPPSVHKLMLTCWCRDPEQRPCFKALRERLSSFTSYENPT

[10] = biological target: Cyclin-dependent kinase 5/CDK5 activator 1 (Homo sapiens) (UniProt Q00535+Q15078); assay: Selectivity interaction (SelectScreen profiling (Invitrogen)) EUB0000607a CDK5; format: protein-complex assay; details: at 2 µM
[11] = biological target: Sodium-dependent noradrenaline transporter (Homo sapiens, UniProt P23975); assay: Selectivity interaction (Panel of kinases, GPCRs, ion channels and transporters (enzymatic assay)) EUB0000266bCl SLC6A2
Sequence of Sodium-dependent noradrenaline transporter (P23975 whole entry): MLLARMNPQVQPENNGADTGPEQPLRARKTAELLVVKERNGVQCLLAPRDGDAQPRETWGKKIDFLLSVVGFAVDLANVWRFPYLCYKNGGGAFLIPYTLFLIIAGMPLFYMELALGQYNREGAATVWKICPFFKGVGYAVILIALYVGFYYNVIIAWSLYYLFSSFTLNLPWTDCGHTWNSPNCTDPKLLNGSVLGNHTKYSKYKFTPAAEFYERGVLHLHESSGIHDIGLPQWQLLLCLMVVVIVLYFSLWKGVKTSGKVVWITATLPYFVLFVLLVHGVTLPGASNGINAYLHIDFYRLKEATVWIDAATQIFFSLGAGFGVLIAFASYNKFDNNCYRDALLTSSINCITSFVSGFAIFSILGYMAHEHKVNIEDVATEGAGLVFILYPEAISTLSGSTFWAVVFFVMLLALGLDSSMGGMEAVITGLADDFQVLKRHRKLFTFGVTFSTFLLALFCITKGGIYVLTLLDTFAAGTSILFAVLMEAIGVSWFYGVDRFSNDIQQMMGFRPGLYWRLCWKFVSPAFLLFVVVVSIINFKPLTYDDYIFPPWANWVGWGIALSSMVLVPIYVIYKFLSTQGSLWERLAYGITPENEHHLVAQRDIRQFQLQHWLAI

[12] = biological target: Serine/threonine-protein kinase PAK 2 (Homo sapiens) (UniProt Q13177); assay: Selectivity interaction (Kinase panel (Invitrogen)) EUB0000639a PAK2; details: at 200 nM
Sequence of Serine/threonine-protein kinase PAK 2 (Homo sapiens) (Q13177 whole entry): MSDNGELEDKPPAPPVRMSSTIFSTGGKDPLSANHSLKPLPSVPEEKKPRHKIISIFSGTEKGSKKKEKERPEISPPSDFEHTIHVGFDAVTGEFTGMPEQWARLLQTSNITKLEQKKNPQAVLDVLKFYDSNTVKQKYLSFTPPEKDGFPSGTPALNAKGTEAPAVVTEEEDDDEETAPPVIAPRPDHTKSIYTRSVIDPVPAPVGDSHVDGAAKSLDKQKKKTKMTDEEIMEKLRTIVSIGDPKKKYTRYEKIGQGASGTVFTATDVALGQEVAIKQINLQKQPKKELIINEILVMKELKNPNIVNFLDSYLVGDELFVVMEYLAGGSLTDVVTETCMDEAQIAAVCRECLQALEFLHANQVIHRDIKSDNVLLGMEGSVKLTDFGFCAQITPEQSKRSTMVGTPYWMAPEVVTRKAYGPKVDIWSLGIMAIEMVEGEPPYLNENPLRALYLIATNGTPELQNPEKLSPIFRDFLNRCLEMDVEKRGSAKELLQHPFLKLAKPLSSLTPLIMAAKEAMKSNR

[13] = biological target: T2, Hormonally up-regulated neu tumor-associated kinase (Homo sapiens) (UniProt P57058); assay: Selectivity interaction (KinomeScan (DiscoverX)) EUB0000092b HUNK; details: at 10 µM
T2 sequence (whole entry): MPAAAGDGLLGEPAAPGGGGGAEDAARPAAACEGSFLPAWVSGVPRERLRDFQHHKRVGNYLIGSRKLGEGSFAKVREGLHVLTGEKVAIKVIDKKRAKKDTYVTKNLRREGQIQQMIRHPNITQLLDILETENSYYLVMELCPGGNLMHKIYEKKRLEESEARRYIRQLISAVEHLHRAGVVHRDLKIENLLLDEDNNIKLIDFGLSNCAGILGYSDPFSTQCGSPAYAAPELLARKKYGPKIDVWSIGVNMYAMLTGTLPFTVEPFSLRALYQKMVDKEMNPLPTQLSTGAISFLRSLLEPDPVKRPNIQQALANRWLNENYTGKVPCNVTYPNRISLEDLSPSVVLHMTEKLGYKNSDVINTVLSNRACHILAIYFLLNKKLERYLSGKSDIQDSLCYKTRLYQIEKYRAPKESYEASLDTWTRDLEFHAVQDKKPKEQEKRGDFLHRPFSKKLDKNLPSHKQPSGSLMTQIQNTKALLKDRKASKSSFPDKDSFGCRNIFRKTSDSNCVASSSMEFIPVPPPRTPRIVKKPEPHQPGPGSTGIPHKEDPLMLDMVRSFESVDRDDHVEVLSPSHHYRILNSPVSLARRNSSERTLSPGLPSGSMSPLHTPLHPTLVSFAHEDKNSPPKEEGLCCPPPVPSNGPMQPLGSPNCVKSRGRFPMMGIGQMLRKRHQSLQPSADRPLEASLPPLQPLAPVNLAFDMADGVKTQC

[14] = biological target: Cyclin-dependent kinase 14 (Homo sapiens) (UniProt O94921); assay: Selectivity interaction (KinomeScan (DiscoverX)) EUB0000092b CDK14; details: at 10 µM
Sequence of Cyclin-dependent kinase 14 (Homo sapiens) (O94921 whole entry): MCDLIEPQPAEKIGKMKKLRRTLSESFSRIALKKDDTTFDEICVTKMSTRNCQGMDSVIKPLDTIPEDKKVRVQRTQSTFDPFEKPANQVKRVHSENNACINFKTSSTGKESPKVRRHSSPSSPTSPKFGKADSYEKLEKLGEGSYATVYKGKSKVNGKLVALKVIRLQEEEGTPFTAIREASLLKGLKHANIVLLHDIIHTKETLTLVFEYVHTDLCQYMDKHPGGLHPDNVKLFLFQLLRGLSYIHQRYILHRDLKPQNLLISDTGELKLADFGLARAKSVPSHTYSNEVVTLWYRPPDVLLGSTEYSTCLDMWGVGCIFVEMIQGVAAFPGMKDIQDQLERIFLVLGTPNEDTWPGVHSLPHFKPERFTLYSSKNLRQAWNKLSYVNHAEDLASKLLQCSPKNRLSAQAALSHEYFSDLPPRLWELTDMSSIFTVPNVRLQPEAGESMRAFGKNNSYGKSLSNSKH

Sequence of Transient receptor potential cation channel subfamily M member 6 (Homo sapiens) (Q9BX84 whole entry): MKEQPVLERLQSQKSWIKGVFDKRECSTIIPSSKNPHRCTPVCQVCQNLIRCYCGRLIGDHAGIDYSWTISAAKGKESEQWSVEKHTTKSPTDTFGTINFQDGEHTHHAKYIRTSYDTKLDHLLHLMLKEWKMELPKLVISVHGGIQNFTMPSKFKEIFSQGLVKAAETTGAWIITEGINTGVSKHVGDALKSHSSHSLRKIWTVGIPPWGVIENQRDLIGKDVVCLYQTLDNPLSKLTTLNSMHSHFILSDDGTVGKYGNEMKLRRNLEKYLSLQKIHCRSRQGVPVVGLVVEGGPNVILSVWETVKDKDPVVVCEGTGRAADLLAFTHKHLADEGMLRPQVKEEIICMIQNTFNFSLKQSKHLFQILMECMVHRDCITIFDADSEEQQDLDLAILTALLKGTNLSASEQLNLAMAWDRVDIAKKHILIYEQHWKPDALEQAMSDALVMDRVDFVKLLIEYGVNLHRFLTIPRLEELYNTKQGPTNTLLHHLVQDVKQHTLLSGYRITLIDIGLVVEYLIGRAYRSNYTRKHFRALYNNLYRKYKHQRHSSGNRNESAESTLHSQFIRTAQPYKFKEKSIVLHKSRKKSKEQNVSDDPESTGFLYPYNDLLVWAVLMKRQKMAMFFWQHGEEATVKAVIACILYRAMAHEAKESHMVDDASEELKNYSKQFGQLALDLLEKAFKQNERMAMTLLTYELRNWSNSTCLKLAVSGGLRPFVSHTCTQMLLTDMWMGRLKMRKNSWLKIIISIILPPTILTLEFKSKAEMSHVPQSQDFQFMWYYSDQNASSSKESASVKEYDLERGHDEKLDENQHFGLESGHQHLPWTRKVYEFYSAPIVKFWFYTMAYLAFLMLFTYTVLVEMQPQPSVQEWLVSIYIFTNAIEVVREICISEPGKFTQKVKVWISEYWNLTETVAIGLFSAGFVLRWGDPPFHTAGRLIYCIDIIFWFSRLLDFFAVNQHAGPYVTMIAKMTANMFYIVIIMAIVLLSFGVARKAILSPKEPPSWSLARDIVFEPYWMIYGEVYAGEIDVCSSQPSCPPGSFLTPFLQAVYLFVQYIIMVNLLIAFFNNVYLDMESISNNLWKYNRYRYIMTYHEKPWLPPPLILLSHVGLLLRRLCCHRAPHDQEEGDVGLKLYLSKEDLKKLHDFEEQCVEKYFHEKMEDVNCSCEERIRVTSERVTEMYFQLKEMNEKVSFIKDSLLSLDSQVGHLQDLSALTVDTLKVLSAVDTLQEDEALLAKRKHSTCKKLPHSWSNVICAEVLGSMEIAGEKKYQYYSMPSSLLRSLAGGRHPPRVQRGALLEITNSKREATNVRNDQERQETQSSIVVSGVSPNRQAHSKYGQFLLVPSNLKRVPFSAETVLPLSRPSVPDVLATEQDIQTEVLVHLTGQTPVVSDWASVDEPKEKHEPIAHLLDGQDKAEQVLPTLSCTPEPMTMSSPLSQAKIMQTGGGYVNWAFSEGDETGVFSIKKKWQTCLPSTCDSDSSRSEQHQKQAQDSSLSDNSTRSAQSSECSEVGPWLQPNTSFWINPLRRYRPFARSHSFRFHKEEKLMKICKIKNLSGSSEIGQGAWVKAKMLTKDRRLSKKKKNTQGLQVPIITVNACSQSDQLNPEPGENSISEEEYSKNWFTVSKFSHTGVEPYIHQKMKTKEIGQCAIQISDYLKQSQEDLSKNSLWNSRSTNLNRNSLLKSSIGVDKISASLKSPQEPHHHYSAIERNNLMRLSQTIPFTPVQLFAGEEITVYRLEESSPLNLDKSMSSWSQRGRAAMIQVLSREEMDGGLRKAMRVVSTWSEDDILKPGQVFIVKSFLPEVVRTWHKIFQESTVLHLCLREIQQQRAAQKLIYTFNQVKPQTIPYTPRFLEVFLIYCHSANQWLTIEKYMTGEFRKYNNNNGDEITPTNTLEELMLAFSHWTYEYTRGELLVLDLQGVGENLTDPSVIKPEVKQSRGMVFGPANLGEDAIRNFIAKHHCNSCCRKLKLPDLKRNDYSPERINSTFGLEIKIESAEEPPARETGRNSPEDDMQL

COc1cc(N(C)c2ccnc3ccc(C(F)(F)F)cc23)cc(OC)c1OC
% binding [1]: 100%

C=CC(=O)Nc1cc(-n2c(=O)ccc3cnc4ccc(-c5ccc(NS(C)(=O)=O)cc5)cc4c32)ccc1C
% of control ([2]; at 1 µM): 100% | % of control ([2]; at 10 µM): 24% | % of control ([3]; at 1 µM): 88% | % of control ([3]; at 10 µM): 100%

Cc1cc(F)c(C(=O)Nc2cccc(-c3nncn3C(C)C)n2)cc1-n1cnc(C2CC2)c1
% of control [4]: 100%

O=C(NOC[C@H](O)CO)c1ccc(F)c(F)c1Nc1ccc(I)cc1F
% of control [5]: 100%

COc1cc(Nc2nc(C)cc(-c3cnn4nc(OC)ccc34)n2)cc(C(F)(F)F)c1
% of control [6]: 82% | % of control [7]: 91%

CC(=O)Nc1cccc(-n2c(=O)n(C3CC3)c(=O)c3c(Nc4ccc(I)cc4F)n(C)c(=O)c(C)c32)c1
% of control [8]: 111%

C=CC(=O)Nc1cccc(C(=O)Nc2ccc(Nc3cc(-c4[nH]c(SC)nc4C)ccn3)cc2)c1
% of control ([9]; at 1 µM): 101% | % of control ([9]; at 5 µM): 105%

CNC(=O)Nc1ccc(-c2nc(N3CC4CCC(C3)O4)c3cnn(C4CCC5(CC4)OCCO5)c3n2)cc1
% of inhibition [10]: -4%

CCn1c(-c2nc3cc(C(=O)N4CCCC(N)C4)ccc3n2C)cc2ccccc21 (configuration not stated)
pXC50 [11]: 4.4 M

CC[C@@H]1[C@H](F)C(=O)N[C@@H]1COc1nccc2cc(C(N)=O)c(OC)cc12 [ZIMLOVISERTIB]
% of inhibition [12]: 3.6%

CCC(=O)N1CCN(c2ccc(-n3c(=O)ccc4cnc5ccc(-c6cnc7ccccc7c6)cc5c43)cc2C(F)(F)F)CC1
% of control [13]: 91% | % of control [14]: 99%
